# Experimental data taken from PMC9613470, “Diverse MarR bacterial regulators of auxin catabolism in the plant microbiome” (Nature Microbiology, 2022).
# Several values for one entry are separate records, joined by “and”; a condition that tells them apart may be missing. Identical values can stand only once.
# Key:
# [1] = target: Variovorax paradoxus CL14 MarR_73 (Variovorax paradoxus, UniProt C5CSP2); assay: biochemical; assay type: binding; settings: ITC, 25 °C, 20 mM HEPES pH 7.4, 50 mM NaCl, 0.5% DMSO, mean of two measurements ± standard error
# Method: (§1) The coding sequence for each gene can be found in Supplementary Table 10. MarR expression plasmids were synthesized as codon-optimized genes for E. coli expression by BioBasic in the pLIC-His N-term vector (pMCSG7) and transformed into E. coli BL21 (DE3) Gold cells for expression. […] At an OD600 of 0.8, protein expression was induced by the addition of 0.1 mM IPTG and incubation continued overnight. Cells were collected by centrifugation at 4,500 × g for 20 min at 4 °C in a Sorvall (model RC-3B) swinging bucket centrifuge. Cell pellets were resuspended in buffer A (20 mM potassium phosphate, pH 7.4, 50 mM imidazole, 500 mM NaCl), DNase, lysozyme and a Roche Complete EDTA-free protease inhibitor tablet. Resuspended cells were sonicated and clarified via centrifugation at 17,000 × g for 60 min in a Sorvall (model RC-5B) swinging bucket centrifuge. The lysate was applied to a nickel-nitrilotriacetic acid HP column (GE Healthcare) on an Aktaxpress Fast Performance Liquid Chromatography (FPLC) system (Amersham Bioscience) and washed with buffer A. Protein was eluted with buffer B (20 mM potassium phosphate, pH 7.4, 500 mM imidazole, 500 mM NaCl). Fractions containing the protein of interest were combined and passed over a HiLoadTM 16/60 SuperdexTM 200 gel filtration column. Proteins were eluted in S200 buffer (20 mM HEPES, pH 7.4, 300 mM NaCl). Fractions were combined and concentrated for long-term storage at −80 °C.
# All ITC measurements were performed at 25 °C using an Auto-ITC200 microcalorimeter (MicroCal/GE Healthcare). The buffer employed was 20 mM HEPES, pH 7.4, 50 mM NaCl and 0.5% dimethly sulfoxide (DMSO) for protein/ligand binding and 20 mM HEPES, pH 7.4 and 300 mM NaCl for DNA/protein binding experiments. For ligand binding experiments, the calorimetry cell (volume […]) was loaded with MarR wild-type, mutant or homologue protein at a concentration of 50 μM. The syringe was loaded with a ligand concentration of 0.5 or 2 mM. […] A typical injection protocol included a single 0.2 μl first injection followed by 20 1.5 μl injections of the syringe sample into the calorimetry cell. The spacing between injections was kept at 180 s and the reference power at 8 μcal s^−1. […] Two independent ITC measurements were performed for each condition.
# [2] = target: Acinetobacter baumannii MarR_Ab (Acinetobacter baumannii, UniProt A0ABX6CGA9); assay: ITC IAA binding to MarR_Ab
# Method: as §1, with “Fractions were combined and concentrated for long-term storage at −80 °C.” left out
# IAA degradation locus = assay: RNA-seq of V. paradoxus CL14 strains with and without IAA; assay type: cell-based, Variovorax paradoxus CL14; settings: Fig 2 f; for CL14wt_IAA (RNA-seq expression value): CL14 wild type with IAA; for d50_IAA (RNA-seq expression value): ΔMarR_50 with IAA; for d73_IAA (RNA-seq expression value): ΔMarR_73 with IAA; for diadDE_IAA (RNA-seq expression value): ΔiadDE with IAA
# Method: V. paradoxus CL14 was grown in 5 ml cultures of M9 minimal medium supplemented with 15 mM succinate and 0.5% (v/v) ethanol alone or containing IAA. IAA was at a final concentration of 0.1 mg ml^−1 in the medium to which it was added. Cultures were prepared at a starting OD600 of 0.02 and incubated at 28 °C, shaking at 250 r.p.m. Cells from all samples were collected for RNA-seq at 18 h to ensure IAA was still present in the cultures of strains that degraded IAA most rapidly. Cells were pelleted by centrifuging the culture at 4,200 × g for 15 min and removing the supernatant. Cell pellets were frozen at −80 °C before RNA extraction. To extract RNA, cells were lysed in TRIzol reagent (Invitrogen) according to manufacturer instructions for lysis and phase separation. After these steps, RNA was purified from the aqueous phase using the RNeasy mini kit (Qiagen) including the optional on-column DNase digestion with RNase-free DNase set (Qiagen). Total RNA was quantified using the Qubit 2.0 fluorometer (Invitrogen) and RNA-seq libraries were prepared using the Universal Prokaryotic RNA-Seq Prokaryotic AnyDeplete kit (Tecan) according to manufacturer instructions. The resulting libraries were pooled and sequenced on the Illumina HiSeq4000 to generate 50 bp single-end reads.
# The V. paradoxus CL14 RNA-seq sequence data were analysed as described previously. Briefly, the raw reads were mapped to the V. paradoxus CL14 genome (fasta file available at https://github.com/isaisg/variovoraxRGI/blob/master/rawdata/2643221508.fna) using bowtie2[53] with the ‘very sensitive’ flag. Hits to each individual coding sequence were counted and annotated using the function featureCounts from the R package Rsubread[54], inputting the V. paradoxus CL14 gff file (available at https://github.com/isaisg/variovoraxRGI/blob/master/rawdata/2643221508.gff) and using the default parameters with the flag allowMultiOverlap = FALSE. Finally, DESeq2[55] was used to estimate Differentially Expressed Genes (DEGs) between treatments, with the corresponding fold-change estimates and False Discovery Rate (FDR) adjusted P values. For visualization purposes, we performed z-score standardization of each gene across samples and we visualized this standardized expression values utilizing a heat map constructed using ggplot2[56].
# Sequence of Variovorax paradoxus CL14 MarR_73 (C5CSP2 entry or part of it): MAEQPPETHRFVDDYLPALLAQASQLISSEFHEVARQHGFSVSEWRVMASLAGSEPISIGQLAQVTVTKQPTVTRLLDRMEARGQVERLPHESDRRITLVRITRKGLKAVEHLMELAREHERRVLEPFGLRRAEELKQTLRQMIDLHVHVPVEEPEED
smiles,measurement,setting,value
"O=C(O)Cc1c[nH]c2ccccc12 [IAA, indole-3-acetic acid]",N (ligand binding stoichiometry to the MarR monomer),[1],0.732 ± 0.036
same,N (ligand binding stoichiometry to the MarR monomer),[1]; listed as Indole-3-Acetic Acid (IAA),0.73 ± 0.04
same,Kd,[1]; KD,410 nM and 408 nM
same,Kd,[2],1290 ± 101 nM
same,N1,"[2]; ITC, 25 °C, IacR",0.911 ± 0.011
same,CL14wt_IAA (RNA-seq expression value),IAA degradation locus; Gene 2643611541,-0.7473
same,d50_IAA (RNA-seq expression value),IAA degradation locus; Gene 2643611541,0.6042
same,d73_IAA (RNA-seq expression value),IAA degradation locus; Gene 2643611541,0.2688
same,diadDE_IAA (RNA-seq expression value),IAA degradation locus; Gene 2643611541,0.4986
same,CL14wt_IAA (RNA-seq expression value),IAA degradation locus; Gene 2643611542,-0.07617
same,d50_IAA (RNA-seq expression value),IAA degradation locus; Gene 2643611542,0.09619
same,d73_IAA (RNA-seq expression value),IAA degradation locus; Gene 2643611542,0.02449
same,diadDE_IAA (RNA-seq expression value),IAA degradation locus; Gene 2643611542,0.1314
same,CL14wt_IAA (RNA-seq expression value),IAA degradation locus; Gene 2643611543,-0.001618
same,d50_IAA (RNA-seq expression value),IAA degradation locus; Gene 2643611543,0.2002
same,d73_IAA (RNA-seq expression value),IAA degradation locus; Gene 2643611543,0.2405
same,diadDE_IAA (RNA-seq expression value),IAA degradation locus; Gene 2643611543,0.0895
same,CL14wt_IAA (RNA-seq expression value),IAA degradation locus; Gene 2643611544,-1.408
same,d50_IAA (RNA-seq expression value),IAA degradation locus; Gene 2643611544,-0.115
same,d73_IAA (RNA-seq expression value),IAA degradation locus; Gene 2643611544,0.2327
same,diadDE_IAA (RNA-seq expression value),IAA degradation locus; Gene 2643611544,0.2436
same,CL14wt_IAA (RNA-seq expression value),IAA degradation locus; Gene 2643611545,-0.03496
same,d50_IAA (RNA-seq expression value),IAA degradation locus; Gene 2643611545,0.09136
same,d73_IAA (RNA-seq expression value),IAA degradation locus; Gene 2643611545,-0.02991
same,diadDE_IAA (RNA-seq expression value),IAA degradation locus; Gene 2643611545,0.001153
